Columns and labels:
native Rho = settings: counter-screen; cited from earlier work
native MDH = settings: counter-screen; cited from earlier work
ESKAPE pathogens = settings: panel of Gram-positive and Gram-negative bacteria; cited from earlier work
E. coli GroEL/ES = settings: high-throughput screen; cited from earlier work
M. tuberculosis PtpB [1] = molecular target: T1, M. tuberculosis PtpB (Mycobacterium tuberculosis, UniProt I6WXK4); assay type: biochemical; settings: pNPP substrate, 6–8 replicates
human HSP60/10 = settings: in vitro; cited from earlier work
M. tuberculosis PtpB [2] = molecular target: T1, M. tuberculosis PtpB; settings: cited from earlier work

T1 sequence (I6WXK4 whole entry, looked up): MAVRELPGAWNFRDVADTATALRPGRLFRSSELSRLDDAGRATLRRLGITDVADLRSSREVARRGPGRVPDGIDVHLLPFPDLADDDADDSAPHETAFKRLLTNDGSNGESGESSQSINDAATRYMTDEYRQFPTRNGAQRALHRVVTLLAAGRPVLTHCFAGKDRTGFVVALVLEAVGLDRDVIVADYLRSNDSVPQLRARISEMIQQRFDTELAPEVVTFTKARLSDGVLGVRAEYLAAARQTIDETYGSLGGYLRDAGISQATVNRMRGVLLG

In the case of `O=[N+]([O-])c1cc(S(=O)(=O)Nc2ccc(-c3nc4cc(NS(=O)(=O)c5ccc(Cl)s5)ccc4o3)cc2)ccc1Cl` [28R], the “inhibition of native Rho” value (native Rho) is listed as “only weakly” and the “inhibition of native MDH” value (native MDH) is listed as “only weakly”.

In the case of `Cc1ccc(S(=O)(=O)Nc2ccc(-c3nc4ccc(NS(=O)(=O)c5ccc(C)cc5)cc4[nH]3)cc2)cc1` [compound 1], the antibacterial efficacy (ESKAPE pathogens) is listed as “lacked any appreciable antibacterial efficacy” and the GroEL/ES inhibition (E. coli GroEL/ES) is listed as “one of our most potent GroEL/ES inhibitors”.

For `O=S(=O)(Nc1ccc2oc(-c3ccccc3)nc2c1)c1cccc(O)c1` [L51-m], the “dose-response behaviour on PtpB phosphatase activity” value (M. tuberculosis PtpB [1]) was “bi-phasic response where compounds activate then inhibit phosphatase activity”.

In the case of `Cc1ccc(C(=O)Nc2ccc(S(=O)(=O)O)c3cc(S(=O)(=O)O)cc(S(=O)(=O)O)c23)cc1NC(=O)c1cccc(NC(=O)Nc2cccc(C(=O)Nc3cc(C(=O)Nc4ccc(S(=O)(=O)O)c5cc(S(=O)(=O)O)cc(S(=O)(=O)O)c45)ccc3C)c2)c1` [suramin], the “inhibition of human HSP60/10” value (human HSP60/10) is given as “can inhibit human HSP60/10 in vitro”.

For `O=C(O)C(=O)N(Cc1cccc(Cl)c1)Cc1ccc(S(=O)(=O)NCCC(c2ccccc2)c2ccccc2)s1` [OMTS, (oxalylamino-methylene)-thiophene sulfonamide], the “inhibition of M. tuberculosis PtpB” value (M. tuberculosis PtpB [2]) is listed as “potent and selective inhibitor”.

— PMC6531345 (Bioorganic & medicinal chemistry letters, 2019)
